Source: patent publication US20240246995A1, “PYRIMIDINONE DERIVATIVE AND PREPARATION METHOD THEREFOR, PHARMACEUTICAL COMPOSITION, AND USE” (SHANGHAI SIMR BIOTECHNOLOGY CO., LTD., priority 2021, published 2024)

Target: T1, Lipoprotein-Related Phospholipase A2 (Lp-PLA2) in Human Plasma (Homo sapiens, UniProt Q13093)
T1 construct: 40 μL of equally-divided and thawed mixed human plasma is pre-added; from tissue; host or cells: mixed (pooled) human plasma
T1 sequence (Q13093 22-441): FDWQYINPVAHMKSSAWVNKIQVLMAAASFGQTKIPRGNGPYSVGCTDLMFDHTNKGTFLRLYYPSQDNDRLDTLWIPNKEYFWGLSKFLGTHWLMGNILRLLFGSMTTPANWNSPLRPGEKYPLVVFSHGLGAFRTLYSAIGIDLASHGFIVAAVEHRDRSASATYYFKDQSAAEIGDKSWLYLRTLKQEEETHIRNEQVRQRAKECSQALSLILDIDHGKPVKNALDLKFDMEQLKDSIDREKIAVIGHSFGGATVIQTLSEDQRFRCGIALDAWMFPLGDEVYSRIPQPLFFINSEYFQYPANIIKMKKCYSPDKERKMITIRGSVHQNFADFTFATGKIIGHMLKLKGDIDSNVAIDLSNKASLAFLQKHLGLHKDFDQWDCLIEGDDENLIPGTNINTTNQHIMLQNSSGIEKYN
Experiment: Determination of Lp-PLA2 in human plasma (Thio-PAF assay)
Type: biochemical
Conditions: mixed human plasma, 2-thio-PAF substrate, 30 minutes pre-incubation at room temperature
From the text: Determination of Lipoprotein-Related Phospholipase A2 (Lp-PLA2) in Human Plasma.
Human plasma determination utilizes a thioester analogue of phosphatidylcholine (PAF), where hydrolysis leads to the formation of phospholipids containing free thiol groups. The amount of the thiol groups is continuously determined by reacting with CPM (7-diethylamino-3-(4′-maleimidophenyl)-4-methylcoumarin), which is maleimide with increased fluorescence after Michael addition of the thiol groups. This determination can detect the activity of Lp-PLA2 in human plasma, for example, determined by the specific inhibition of the Lp-PLA2 inhibitors.
Thio-PAF determination, as quenched 75 μL determination, is carried out. A compound source plate is prepared by preparing a 1:3 (volume) series of diluents of each compound in pure DMSO on a 96-well microplate. A Rainin multi-channel pipette is used to transfer 3 μL of a compound on the compound source plate into a 96-well microplate where 57 μL of a determination buffer is pre-added, and the compound on the source plate is diluted by 20 folds. The above determination buffer contains 50 mM HEPES (pH 7.4), 150 mM NaCl, and 1 mM CHAPS. A Rainin multi-channel pipette is used to transfer 1 μL of the compound subjected to 20-fold dilution into a 96-well Greiner 655076 (black) microplate where 40 μL of equally-divided and thawed mixed human plasma is pre-added. The plate is oscillated for 20 seconds in an Elisa plate oscillator to be mixed evenly. After 30 minutes of pre-incubation at the room temperature, a Rainin multi-channel pipette is used to add 10 μL of a substrate solution to a 96-well Greiner 655076 (black) microplate, and the substrate solution contains 2.5 mM 2-thio-PAF [from ethanol mother liquor], 32 μM CPM [from DMSO mother liquor] and 3.2 mM NEM (N-ethylmaleimide) [newly prepared in DMSO for each experiment] in a determination buffer composed of 50 mM HEPES (pH 7.4), 150 mM NaCl, and 1 mM CHAPS. After 2 minutes, 25 μL of a 5% trifluoroacetic acid (TFA) aqueous solution is used for quenching the reaction. The plate is centrifuged at 2000 rpm for 1 minute. A Biotek Synergy H1 (H1MF) Elisa reader is used to read the plate at ex:380/em:485. GraphPad Prism 6.0 and Excel are used for IC50 data, curve, and QC analysis.

| IC50 | SMILES |
| --- | --- |
| 5.2 nM | COc1c(OCc2ccc(Oc3ccnc(C(F)(F)F)c3)c(F)c2)nc(=O)n2c1N1C[C@@H]3C[C@@]1(CC2)CO3 [Example 62, (7aS,10S)-2-((3-fluoro-4-((2-(trifluoromethyl)pyrid-4-yl)oxy)benzyl)oxy)-1-methoxy-6,7,10, 11-tetrahydro-4H, 8H-7a,10-methyl-pyrimidinyl [6′,1′:2,3] pyrimidinyl[6,1-c] [1,4]oxazin-4-one] |
| 5.5 nM | COc1c(OCc2cc(F)c(Oc3ccnc(OC(F)(F)F)c3)c(F)c2)nc(=O)n2c1N1C[C@@H]3C[C@@]1(CC2)CO3 [Example 63] |
| 5.8 nM | N#Cc1c(OCc2ccc(Oc3ccnc(C(F)(F)F)c3)c(F)c2)nc(=O)n2c1N1CCCC1CC2 (stereo not drawn) [Example 64, 2-((3-fluoro-4-((2-(trifluoromethyl)pyrid-4-yl)oxy)benzyl)oxy)-4-oxo-6,7,7a,8,9,10-hexahydro-4H-pyrimidinyl [1,6-a]pyrrolo [1,2-c]pyrimidine-1-nitrile] |
